Literature values in paper PMC9823088, “The oral selective estrogen receptor degrader GDC-0810 (ARN-810) in postmenopausal women with hormone receptor-positive HER2-negative (HR + /HER2 −) advanced/metastatic breast cancer” (Breast Cancer Research and Treatment, 2022).

Experiments:
ERα = test system: ERα; set-up: method as in PMID 27410477; conditions: MCF-7 breast cancer cell; cited from earlier work
[1] = test system: tamoxifen-sensitive ER + breast cancer xenograft; conditions: tamoxifen-sensitive ER + breast cancer xenograft models; cited from earlier work
[2] = test system: tamoxifen-resistant ER + breast cancer xenograft; conditions: tamoxifen-resistant ER + breast cancer xenograft models; cited from earlier work

CC/C(=C(/c1ccc(/C=C/C(=O)O)cc1)c1ccc2[nH]ncc2c1)c1ccc(F)cc1Cl [GDC-0810]
proteasomal degradation of ERα (ERα): induced proteasomal degradation of ERα
response of ER to estrogens (ERα): fully antagonized
tumor regression [1]: induced tumor regression
tumor regression [2]: induced tumor regression
